One may read the Kd as the equilibrium constant for the complex coming apart. As usually defined, the IC50 is the concentration that gives 50% inhibition. Read a low IC50 as greater potency in that assay.

Type in all cases: binding
The target of experiment [1] is T1, TetR mutant (Escherichia coli, UniProt P04483, H139W).
T1 construct: made in house; host or cells: E. coli Rosetta-gami(BL21), vector pET28a
The experiment is described as follows: Surface plasmon resonance affinity, TetR mutant. The following applies: SPR; for Kd: KD (equilibrium dissociation constant, Kd/Ka). The procedure: (§1) After the experiments, the association constant (Ka), the dissociation constant (Kd), and the equilibrium dissociation constant (KD = Kd/Ka) for each drug were calculated. For convenience in comparing their affinities, the absolute affinity constant (KA = […]) for each drug was also calculated.
The primers were designed according to the virtual model: mutant for, […]; mutant rev, […]. The amplified gene was inserted into pET28a to construct the express vector that was transformed into E. coli Rosetta-gami(BL21) to express the mutant, and these procedures were according to our recent report. The obtained TetR mutant was characterized by using SDS-PAGE and western blotting according to our recent report, and its recognition ability for the 10 TCs was evaluated by the following FPA method. Furthermore, its recognition mechanisms and affinities for the 10 TCs were also determined as described above.
For orientation: In SPR one partner is held on a chip, and binding of the other changes the refractive index at the surface.

In experiment [2] the target is T2, natural TetR (Escherichia coli, UniProt P04483).
T2 construct: made in house
Nature of the experiment: Surface plasmon resonance affinity, natural TetR. Particulars: for Kd: KD (equilibrium dissociation constant, Kd/Ka); for Kd / koff (dissociation rate constant): SPR. The procedure: as §1

Experiment [3] deals with T1, TetR mutant. Nature of the experiment: Fluorescence polarization assay (FPA) with TetR mutant. The procedure:
(§2) The FPA method was performed as follows. A total of 50 μL mutant, 50 μL TCs solution, and 50 μL fluorescent tracer were added into the wells of a 96-well microplate (in triplicate) and incubated for 2 min. Then the fluorescence polarization (FP) value of each well was recorded (λex 485 nm, λem 528 nm, emission cutoff of 515 nm). During the experiments, the two fluorescent tracers were compared, and several other parameters were optimized, including tracer concentration, mutant concentration, Mg^2+ concentration and incubation time. The 10 TCs and several other classes of drugs were all tested by this method. The competitive curve was developed by plotting the FP/FP0 values (the fluorescence polarization value at each concentration divided by that of zero concentration) versus the concentrations of the TCs (log C). Based on the developed competitive curve, the half of inhibition (IC50) and the limit of detection (IC10) for each drug were determined, respectively.
For obtaining the best method performance, several parameters were optimized with DMC as the representative. Firstly, the concentrations of FA-MC and the mutant were optimized. During the experiments, the FA-MC and the mutant at different concentrations were mixed with the same concentration of DMC to perform the assay. […] Secondly, the concentration of Mg^2+ (MgCl2) was optimized. […] Thirdly, the competition time was optimized.
(§3) This is the first study reporting an FPA method for the determination of TCs. Under the optimal conditions, the 10 TCs were diluted with the extracts of a blank milk sample to be analyzed, respectively. […] During the experiments, the natural TetR was also used to perform the FPA method as described above.

In experiment [4] the target is T2, natural TetR. The experiment is described as follows: Fluorescence polarization assay (FPA) with natural TetR. On the procedure: as §2, §3
In general terms: Polarisation of emitted light reports the rotation of a fluorescent probe.

Where two headings read alike, the source gives them in different places.

On to `CN(C)c1cc(NC(=O)CNC(C)(C)C)c(O)c2c1C[C@H]1C[C@H]3[C@H](N(C)C)C(O)=C(C(N)=O)C(=O)[C@@]3(O)C(O)=C1C2=O` [TIC, tigecycline], for which the Kd on TetR mutant [1] (TetR mutant without Mg2+) worked out at 0.104 nM; on TetR mutant [1] (TetR mutant+Mg2+), 0.104 nM; at natural TetR [2] (TetR without Mg2+), 10.4 nM; on natural TetR [2] (TetR+Mg2+), 28.2 nM. Further, the “Dissociation rate constant (koff)” value at TetR mutant [1] (TetR mutant without Mg2+) amounted to 9.45e-07 s⁻¹; at TetR mutant [1] (TetR mutant+Mg2+), 1.78e-06 s⁻¹. Further, the “koff (dissociation rate constant)” value worked out at 1.04e-05 s⁻¹ on natural TetR [2] (TetR without Mg2+) and 1.78e-05 s⁻¹ at natural TetR [2] (TetR+Mg2+). Besides, the kon on natural TetR [2] (read-out: Ka (association constant), TetR without Mg2+, SPR) is 1010 M⁻¹ s⁻¹; on natural TetR [2] (read-out: Ka (association constant), TetR+Mg2+, SPR), 633 M⁻¹ s⁻¹. The IC50 against TetR mutant [3] was 27.3 nM; at natural TetR [4] it was 52.6 nM. Moreover, the “LOD (limit of detection, IC10)” value at TetR mutant [3] (TetR mutant, FPA, FA-MC tracer, drugs diluted with blank milk extract) is listed as 0.4 ng/mL.

The values are drawn from paper PMC9735679, “Identification and Evolution of a Natural Tetr Protein Based on Molecular Docking and Development of a Fluorescence Polari-Zation Assay for Multi-Detection of 10 Tetracyclines in Milk” (Foods, 2022).
